Results as given in patent US7423008B2, “Derivatives of mithramycin and methods of making and uses thereof” (University of Kentucky Research Foundation, priority 2004, dated 2008).

What was measured:
Melanoma cell lines = assay: Sulforhodamine B assay, 60 cell line panel: melanoma; assay type: cell-based, human; details: for GI50: Homo sapiens, 60 cell, 8 cell lines, read-out: Average Log(GI50) (converted); for AIF (activity improvement factor, 10^Δ1−x): versus 1
Description: (§1) The cytotoxicity of Mithramycin-SK and demycarosyl-mithramycin-SK were assessed in a panel of 60 cell lines using a sulforhodamine B assay. It is active against a variety of tumor cell lines in the concentration range of 10^−5 to 10^−8 molar. Cell lines were inoculated into a series of 96-well microliter plates with varying seeding densities depending on the growth characteristics of the particular cell lines. Following a 24 hour drug-free incubation, mithramycin-SK was added routinely at five 10-fold dilutions with maximum concentration of […]. After 48 hours of drug exposure, the change in protein stain optical density allowed the inhibition of cell growth to be analyzed.

CNS cancer cells = assay: Sulforhodamine B assay, 60 cell line panel: CNS; assay type: cell-based, human; details: for GI50: Homo sapiens, 60 cell, 5 cell lines, read-out: Average Log(GI50) (converted); for AIF (activity improvement factor, 10^Δ1−x): versus 1
Description: as §1

[1] = test system: Ovarian cancer cell lines; assay: Sulforhodamine B assay, 60 cell line panel: ovarian; assay type: cell-based, human; details: for GI50: Homo sapiens, 60 cell, 6 cell lines, read-out: Average Log(GI50) (converted); for AIF (activity improvement factor, 10^Δ1−x): versus 1
Description: as §1

Colon cancer cell lines = assay: Sulforhodamine B assay, 60 cell line panel: colon; assay type: cell-based, human; details: for GI50: Homo sapiens, 60 cell, 7 cell lines, read-out: Average Log(GI50) (converted); for AIF (activity improvement factor, 10^Δ1−x): versus 1
Description: as §1

Leukemia cell lines = assay: Sulforhodamine B assay, 60 cell line panel: leukemia; assay type: cell-based, human; details: for GI50: Homo sapiens, 60 cell, 5 cell lines, read-out: Average Log(GI50) (converted); for AIF (activity improvement factor, 10^Δ1−x): versus 1
Description: as §1

Breast cancer cell lines = assay: Sulforhodamine B assay, 60 cell line panel: breast; assay type: cell-based, human; details: for GI50: Homo sapiens, 60 cell, 8 cell lines, read-out: Average Log(GI50) (converted); for AIF (activity improvement factor, 10^Δ1−x): versus 1
Description: as §1

Breast (MCF-7) = assay: Proliferation inhibition assay (sulforhodamin B uptake), breast cells; assay type: cell-based; details: concentration 1 × 10^−5 molar
Description: (§2) The experiment was performed by Biotecon, Berlin. It measures the uptake of sulforhodamin B (SRB), which is dependent on the cellular protein quantities, and can be performed in 96-well microtiter plates according to the protocol published by Boyd et al. (NCI). The SRB assay is a rapid and sensitive method to measure drug-induced cytotoxicity. Briefly, cells will be incubated with and without drug for 72 hours (drugs will be added after 24 hours), fixed with TCA (trichloroacetic acid), and stained for 30 minutes using a 0.4% (w/v) SRB solution in […]. Cultures will then be rinsed with 1% acetic acid, residual wash solution will be removed and air-dried. Bound dye will be solubilized with 10 mM unbuffered Tris base (pH 10.5) for 5 min., and the optical density (OD) will be measured with amicrotiter plate reader at 564 nm. (Skehan, P. et al., “New calorimetric cytotoxicity assay for anticancer-drug screening,” Journal of the National Cancer Institute, 1990. 82(13): p. 1107-1112).

Renal cancer cell lines = assay: Sulforhodamine B assay, 60 cell line panel: renal; assay type: cell-based, human; details: for GI50: Homo sapiens, 60 cell, 8 cell lines, read-out: Average Log(GI50) (converted); for AIF (activity improvement factor, 10^Δ1−x): versus 1
Description: as §1

NSCLC cell lines = assay: Sulforhodamine B assay, 60 cell line panel: NSCLC; assay type: cell-based, human; details: for GI50: Homo sapiens, 60 cell, 8 cell lines, read-out: Average Log(GI50) (converted); for AIF (activity improvement factor, 10^Δ1−x): versus 1
Description: as §1

CNS (SF-268) = assay: Proliferation inhibition assay (sulforhodamin B uptake), CNS cells; assay type: cell-based
Description: as §2

[2] = test system: Prostrate cancer cell lines; assay: Sulforhodamine B assay, 60 cell line panel: prostate; assay type: cell-based, human; details: for GI50: Homo sapiens, 60 cell, 2 cell lines, read-out: Average Log(GI50) (converted); for AIF (activity improvement factor, 10^Δ1−x): versus 1
Description: as §1

Lung (NCI-H460) = assay: Proliferation inhibition assay (sulforhodamin B uptake), lung cells; assay type: cell-based
Description: as §2

[3] = test system: non-tumorous mouse fibroblast cells (NIH 3T3); assay: Neutral red toxicity assay on non-tumorous fibroblasts; assay type: cell-based; details: for IC50: NIH3T3, neutral red
Description: Mithramycin-SK and demycarosyl-mithramycin-SK were also tested in a neutral red toxicity assay. In this experiment, non-tumorous mouse fibroblast cells were used (NIH 3T3).
(§3) Mithramycin-SK was particularly active against melanoma, leukemia, and CNS cancer cells (log(GI50) values of −7.64, −7.59, and −7.61, respectively).

Lung carcinoma = assay: Neutral red assay, lung carcinoma; assay type: cell-based; details: for GI50: read-out: Average Log(GI50) (converted)
Source text: as §3

Breast carcinoma = assay: Neutral red assay, breast carcinoma; assay type: cell-based; details: for GI50: read-out: Average Log(GI50) (converted)
Source text: as §3

[4] = test system: squamous, melanoma, lung, and breast carcinomas; assay: Neutral red uptake analysis of carcinomas, overall; assay type: cell-based; details: cells not given
Source text: as §3

Melanoma = assay: Neutral red assay, melanoma; assay type: cell-based; details: for GI50: read-out: Average Log(GI50) (converted)
Source text: as §3

[5] = test system: 60 human cancer cell lines; assay: Sulforhodamine B cytotoxicity assay, whole panel of 60 cell lines (NCI); assay type: cell-based
Description: The mithramycin SK has antitumor activity substantially higher than that of MTM and is particularly active against melanoma, leukemia and CNS cancer cells.
as §1

Squamous carcinoma = assay: Neutral red assay, squamous carcinoma; assay type: cell-based; details: for GI50: read-out: Average Log(GI50) (converted)
Source text: as §3

[6] = mouse 3T3 fibroblast (nontumor) cells
[7] = concentration 1 × 10^−4.6 molar

| Structure (SMILES) | GI50 (Melanoma cell lines) [nM] | AIF (activity improvement factor, 10^Δ1−x) (Melanoma cell lines) | GI50 (CNS cancer cells) [nM] | AIF (activity improvement factor, 10^Δ1−x) (CNS cancer cells) | GI50 [1] [nM] | AIF (activity improvement factor, 10^Δ1−x) [1] | GI50 (Colon cancer cell lines) [nM] | AIF (activity improvement factor, 10^Δ1−x) (Colon cancer cell lines) | GI50 (Leukemia cell lines) [nM] | AIF (activity improvement factor, 10^Δ1−x) (Leukemia cell lines) | GI50 (Breast cancer cell lines) [nM] | AIF (activity improvement factor, 10^Δ1−x) (Breast cancer cell lines) | Percent Growth in 48 Hours, Breast (MCF-7) (Breast (MCF-7)) [%] | GI50 (Renal cancer cell lines) [nM] | AIF (activity improvement factor, 10^Δ1−x) (Renal cancer cell lines) | GI50 (NSCLC cell lines) [nM] | AIF (activity improvement factor, 10^Δ1−x) (NSCLC cell lines) | Percent Growth in 48 Hours, CNS (SF-268) (CNS (SF-268); concentration 1 × 10^−5 molar) [%] | GI50 [2] [nM] | Percent Growth in 48 Hours, Lung (NCI-H460) (Lung (NCI-H460); concentration 1 × 10^−5 molar) [%] | other results |
| --- | --- | --- | --- | --- | --- | --- | --- | --- | --- | --- | --- | --- | --- | --- | --- | --- | --- | --- | --- | --- | --- |
| COC(C(O)C(C)=O)[C@@H]1Cc2cc3cc(OC4CC(OC5CC(O)C(O)C(C)O5)C(O)C(C)O4)c(C)c(O)c3c(O)c2C(=O)[C@H]1OC1CC(OC2CC(O)C(O)C(C)O2)C(O)C(C)O1 (stereo partly drawn) [Demycarosyl-Mithramycin-SK, Demycarosyl-mithramycin-SK] | 4270 | 0.04 | 5010 | 0.03 | 5890 | 0.04 | 4470 | 0.05 | 2820 | 0.08 | 7080 | 0.04 | 22 | 7240 | 0.03 | 5010 | 0.04 | 47 | 5620 | 5 | AIF (activity improvement factor, 10^Δ1−x) [2]: 0.02 |
| COC(C(O)C(C)=O)[C@@H]1Cc2cc3cc(OC4CC(OC5CC(O)C(O)C(C)O5)C(O)C(C)O4)c(C)c(O)c3c(O)c2C(=O)[C@H]1OC1CC(OC2CC(OC3CC(C)(O)C(O)C(C)O3)C(O)C(C)O2)C(O)C(C)O1 (stereo partly drawn) [Mithramycin-SK, mithramycin-SK] | 22.9 | 8.3 | 24.5 | 6.8 | 29.5 | 8.5 | 47.9 | 4.7 | 25.7 | 8.7 | 1290 | 0.2 | 0.2 | 51.3 | 3.6 | 42.7 | 4.4 | 1 | 33.1 | 0.1 | toxicity (concentration still without toxicity) ([3]; NIH 3T3, after 24 hours of incubation): > 200 µg/mL; IC50 [3, 6]: 19600 nM; toxicity compared to parent compound MTM ([3]; in vitro toxicity assay): two orders of magnitude lesser toxicity; fold less toxic than MTM ([3]; mouse 3T3 fibroblast (nontumor) cells, ratio of IC50 values): more than 1500 fold; GI50 (Lung carcinoma): 132 nM; AIF (activity improvement factor, 10^Δ1−x) (Lung carcinoma; versus 1): 91.2; GI50 (Breast carcinoma): 182 nM; AIF (activity improvement factor, 10^Δ1−x) (Breast carcinoma; versus 1): 61.6; AIF (activity improvement factor, 10^Δ1−x) [2]: 3.8; concentrations revealing antiproliferative activity [4]: < 1 µg/mL; GI50 (Melanoma): 562 nM; AIF (activity improvement factor, 10^Δ1−x) (Melanoma; versus 1): 15.8; activity, times higher than that of MTM ([5]; compilation of the average log(GI50) values): up to 9 times; antitumor activity compared to parent compound MTM ([5]; initial in vitro anticancer assays by the NCI, 60 human cancer cell lines): up to two orders of magnitude better antitumor activity; GI50 (Squamous carcinoma): 1020 nM; AIF (activity improvement factor, 10^Δ1−x) (Squamous carcinoma; versus 1): 8.9 |
| CO[C@H](C(=O)[C@@H](O)[C@@H](C)O)[C@@H]1Cc2cc3cc(OC4CC(OC5CC(O)C(O)C(C)O5)C(O)C(C)O4)c(C)c(O)c3c(O)c2C(=O)[C@H]1OC1CC(OC2CC(OC3CC(C)(O)C(O)C(C)O3)C(O)C(C)O2)C(O)C(C)O1 (stereo partly drawn) [Mithramycin] | 191 |  | 166 |  | 251 |  | 224 |  | 224 |  | 257 |  | 12 | 186 |  | 186 |  |  | 126 | 12 | IC50 [3, 6]: 3.45 to 12.9 nM; GI50 (Lung carcinoma): 12000 nM; GI50 (Breast carcinoma): 11200 nM; GI50 (Melanoma): 8910 nM; GI50 (Squamous carcinoma): 9120 nM |
| CO[C@@H]1C(=O)C(C(C)=O)=C(O)[C@@]2(O[C@H]3C[C@@H](O)[C@H](O)[C@@H](C)O3)C(=O)c3c(cc4cc(O)cc(O)c4c3O)C[C@@H]12 [Premithramycin A1, reference compound] |  |  |  |  |  |  |  |  |  |  |  |  |  |  |  |  |  |  |  |  | Percent Growth in 48 Hours, CNS (SF-268) (CNS (SF-268); [7]): 93%; Percent Growth in 48 Hours, Lung (NCI-H460) (Lung (NCI-H460); [7]): 68% |
| CO[C@@H]1C(=O)C(C(C)=O)=C(O)[C@@]2(O[C@H]3C[C@@H](O[C@H]4C[C@@H](O[C@H]5C[C@](C)(O)[C@H](O)[C@@H](C)O5)[C@@H](O)[C@@H](C)O4)[C@H](O)[C@@H](C)O3)C(=O)c3c(cc4cc(O[C@H]5C[C@@H](O[C@H]6C[C@@H](O)[C@H](O)[C@@H](C)O6)[C@H](O)[C@@H](C)O5)c(C)c(O)c4c3O)C[C@@H]12 [Premithramycin B, reference compound] |  |  |  |  |  |  |  |  |  |  |  |  | >100 |  |  |  |  | >100 |  | >100 |  |
